Measurements: ChEMBL document CHEMBL1151622, “Occurrence of gerrardine in Cassipourea guianensis” (1984)
≈ marks a conversion by molar mass, not a printed value.

Experiments:
Format in all cases: functional
[1] = tested on: Klebsiella pneumoniae; test: Antimicrobial activity against Klebsiella pneumoniae DA after 2 days; conditions: 48 h
[2] = tested on: Escherichia coli; test: Antimicrobial activity against Escherichia coli NIHJ JC-2 after 2 days; conditions: 48 h
[3] = tested on: Candida albicans; test: Antimicrobial activity against Candida albicans TA
[4] = tested on: Escherichia coli; test: Antimicrobial activity against Escherichia coli 0-111 after 2 days; conditions: 48 h

MIC [1]: 100 µg/mL (≈ 307 µM) | MIC [2]: 100 µg/mL (≈ 307 µM) | MIC [3]: 50 µg/mL (≈ 154 µM) | MIC [4]: 100 µg/mL (≈ 307 µM)
Compound: CN1[C@@H]([C@@H]2SSC[C@@H]2O)CC[C@@H]1[C@@H]1SSC[C@@H]1O [GERRARDINE]
